Experiment [1] has as its system blood brain barrier. Put plainly: Fluorescently labeled dextran extravasation into rat brain (fluorimetry). The experiment is classed as in vivo. Particulars: rats. As for the experimental part:
(§1) The adenosine receptor agonists NECA, CCPA, CGS 21860, and SCH 58261 (Tocris, Ellisville, Mo.) were each dissolved in DMSO then diluted in PBS to the desired concentration; in most cases final DMSO concentrations were <0.5% (vol/vol). Lexiscan (Regadenoson; TRC, Inc., Toronto) was dissolved in PBS. For vehicle controls, DMSO was diluted in PBS to the same concentration. Dehydrated dextrans labeled with either FITC or Texas Red (Invitrogen, Carlsbad, Calif.) were re-suspended in PBS to 10 mg/ml. All experiments involving dextran injection used 1.0 mg dextran in PBS. In experiments where drug and dextran were injected concomitantly, 1.0 mg of dextran was mixed with the drug to the desired concentration in a final volume of 200 μl. In dose-response experiments, drugs and dextrans were injected concomitantly. All injections, except injections of SCH 58261, were retro-orbital i.v. with a 27-gauge needle. In the SCH 58261 experiment, SCH 58261 injections, 1 mg/kg, were intraperitoneal and mice were pre-dosed with this concentration daily for 4 days prior to the day of the experiment. An additional injection was administered at the time of the experiment. Vehicle/drug and dextrans were injected on day 5 and tissues were collected 3 h after vehicle/drug administration. In Lexiscan experiments, Lexiscan was administered i.v. with 3 injections, 5 min apart and tissues were collected at 15 min unless otherwise indicated.
Ice-cold 50 mMTris-Cl (pH 7.6) was added to frozen brains (100 μl per 100 mg brain) and were to thawed on ice. They were homogenized with a dounce homogenizer and centrifuged at […] in a microfuge for 30 min at room temperature (rt). The supernatants were transferred to new tubes and an equal volume absolute methanol was added. The samples were centrifuged again at 16.1×g for 30 min at rt. Supernatant (200 μl) was transferred to a Corning costar 96 well black polystyrene assay plate (clear bottom). […] FITC-dextran was detected at 488/519 (excitation/emission) and Texas Red-dextran was detected at 592/618.

The test system of experiment [2] is Bend.3 cells. Put plainly: F-actin (phalloidin) staining of endothelial cells. The experiment is classed as cell-based, mouse. To be noted: BECs, 1 μM, 3 or 30 min, vs vehicle. How it is done: Bend.3 cells were grown (as described above) on circular cover slips in 24-well plates. Cells were treated for 3 or 30 min with 1 μM CCPA, 1 μM […], DMSO or media alone. Cover slips were washed with PBS, fixed in 4% paraformaldahyde, washed again in PBS and then permeabilized with 0.5% TritonX-100 in PBS. After washing in PBS/1% BSA, cover slips were blocked with 1% BSA then stained with Phallodin-Alexa 568. Cover slips were washed and mounted on slides with ProlongGold containing DAPI (Invitrogen). Images were obtained on an Olympus BX51 fluorescent microscope.

Experiment [3] has as its system Bend.3 cells. Briefly: Transendothelial cell electrical resistance (TEER) assay. To be noted: mouse BEC monolayers, 1 μM, vs vehicle or media alone. The experiment is classed as cell-based. As for the experimental part: Bend.3 cells were grown in ATCC-formulated DMEM supplemented with 10% FBS on 24-well transwell inserts, 8 μm pore size (BD Falcon, Bedford, Mass.) until a monolayer was established. TEER was assessed using a Voltohmeter (EVOMX, World Precision Instruments, Sarasota, Fla.). Background resistance from un-seeded transwells was subtracted from recorded values to determine absolute TEER values. Change in absolute TEER from T0 for each individual transwell was expressed as percentage change and then averaged for each treatment group.

The test system of experiment [4] is Bend.3 cells. Put plainly: Albumin uptake assay. The experiment is classed as cell-based, mouse. To be noted: BECs, 1 μM, 30 minutes, vs media and vehicle. How it is done:
Bend.3 cells grown on collagen coated coverslips were incubated with albumin-alexafluor 594 (50 mg/ml) (Invitrogen) and either media alone, DMSO vehicle, NECA (1 μM), or Lexiscan (1 μM) for 30 minutes. Albumin uptake was visualized (albumin=red) utilizing the Zeiss Axio Imager M1 fluorescent microscope. Total albumin fluorescence was recorded using Zeiss Axio Vision software, and measured utilizing Image-J software.

Experiment [5] relates to Bend.3 cells. Put plainly: Tight junction molecule staining (ZO-1, Claudin-5, Occludin). The experiment is classed as cell-based, mouse. Particulars: 1 μM, 1 h. How it is done: Bend.3 cells grown on collagen coated coverslips were incubated with DMSO vehicle, NECA (1 μM), or Lexiscan (1 μM) for 1 h. Cells were washed with PBS, fixed with 4% paraformaldehyde, and permeabilized with 0.5% Triton-X in PBS. Cells were blocked with PBS/BSA/goat serum and then stained with antibodies (Invitrogen) against either ZO-1 (1A12), Claudin-5 (34-1600), or Occludin (3F10). Following a wash step, cells were incubated with either goat anti-rabbit IgTexas Red-X or goat anti-mouse IgCy5 (Invitrogen). Cover slips were washed and mounted on slides with ProlongGold containing DAPI. Images were obtained on a Zeiss Axio Imager M1 fluorescent microscope.

In experiment [6] the test system is blood brain barrier. Put plainly: Fluorescently labeled dextran extravasation into mouse brain (fluorimetry). The experiment is classed as in vivo, mice. How it is done: as §1
In dose-response experiments and experiments with the A1 AR and A2A AR knock-out mice, drugs and dextrans were injected concomitantly. After 3 h, the mice were anesthetized with ketamine/xylazine and subjected to a nose cone containing isoflurane. They were perfused with 25-50 ml ice-cold PBS through the left ventricle of the heart then decapitated. Their brains were removed, weighed and frozen for later analysis.
Ice-cold 50 mMTris-Cl (pH 7.6) was added to frozen brains (100 μl per 100 mg brain) and were to thawed on ice. They were homogenized with a dounce homogenizer and centrifuged at […] in a microfuge for 30 min at room temperature (rt). The supernatants were transferred to new tubes and an equal volume absolute methanol was added. The samples were centrifuged again at […] for 30 min at rt. Supernatant (200 μl) was transferred to a Corning costar 96 well black polystyrene assay plate (clear bottom). Additionally, a series of standards containing 0.001-10 pg/ml dextran in 50% Tris-Cl/50% absolute methanol (vol/vol) was added to each plate. Absolute concentrations of dextrans were derived from these standard curves. Fluorimetric analysis was performed on a BioTek (Winooski, Vt.) Synergy 4. FITC-dextran was detected at 488/519 (excitation/emission) and Texas Red-dextran was detected at 592/618.

The mark [7] stands for this setting: mice, single i.v. injection (0.05 mg/kg).

The structures appear in SMILES notation. A value given as a limit tells only on which side of the number the result lay.

Take `CNC(=O)c1cnn(-c2nc(N)c3ncn([C@@H]4O[C@H](CO)[C@@H](O)[C@H]4O)c3n2)c1` [Lexiscan]: the “labeled-dextran levels in brain” value in the experiment with blood brain barrier [1] (3 injections over 15 min) was “dramatically high levels of labeled-dextran”. In the experiment on blood brain barrier [1] (3 injections vs single injection), the “increase in labeled-dextran, multiple doses compared to single injections” value was “more than 20 fold”. In addition, the BBB permeability entry with blood brain barrier [1] (i.v. administration) was “increased BBB permeability in rats”. Also, in the experiment with Bend.3 cells [2], the “actinomyosin stress fiber formation” value was “marked induction of actinomycin stress fibers”. Moreover, the TEER result in the experiment with Bend.3 cells [3] is “decreases in TEER”. Moreover, in the experiment with Bend.3 cells [4], the “rate of fluorescently-labeled albumin uptake” value is “did not affect the rate of fluorescently-labeled albumin uptake”. In addition, in the experiment on Bend.3 cells [5], the “ZO-1 and claudin-5 expression” value was “discreet alterations in ZO-1 and claudin-5”; the occludin expression entry was “severely diminished occludin expression”. The “magnitude of increased BBB permeability compared with NECA” value in the experiment on blood brain barrier [6] (i.v. administration) is “much greater than the magnitude of increased permeability after NECA administration”. The “BBB permeability to 10,000 Da dextrans” value in the experiment on blood brain barrier [6] (mice, i.v. administration) was “increase BBB permeability to 10,000 Da dextrans”. Besides, in the experiment on blood brain barrier [6] (setting [7]), the “time by which BBB permeability returned to baseline” value is not above 180 min and the “time of maximum increased BBB permeability” value was 30 min. Besides, the “time after which FITC-dextran was detectable in the brain” value in the experiment with blood brain barrier [6] (mice, single injection) stood at 5 min.

Source of the values: US20130224110A1, “USE OF ADENOSINE RECEPTOR SIGNALING TO MODULATE PERMEABILITY OF BLOOD-BRAIN BARRIER” (CORNELL UNIVERSITY, priority 2010, published 2013).
